# From patent US10975087B2, “Solid forms of tetrahydropyranyl amino-pyrrolopyrimidinone compounds” (ArQule, Inc., priority 2018, dated 2021)
# Tests used:
# Competitive slurrying = type: physicochemical; conditions: ca. 48 hours; for Form (competitive slurrying result): XRPD
# Protocol: Approximately 5 mg of each form (Form 1 and Form 4, Form 1 and Form 8, and Form 4 and Form 8) was weighed and agitated at ambient and 50° C. in minimal acetone, ethanol, diisopropyl ether (DIPE) and acetonitrile. Approximately 8 drops of each solvent was added and the samples were then agitated for ca. 48 hours, before being analyzed by XRPD. Table 9 details the conditions.
# [1] = Thermodynamic solubility pH measurements; type: physicochemical; conditions: for Solubility (mg/mL) / Solubility: 48 hours
# Protocol: After 2 hours at 25° C., the pH of each slurry was measured and the pH was adjusted, where required. After 24 hours at 25° C., the pH of each slurry was measured and the pH was adjusted, where required. After 48 hours at 25° C., the slurries were separated by centrifugation. The solids were analyzed by XRPD, while the pH of the separated liquors were also measured.
compound,measurement,setting,value
O=C(c1ccc(Oc2ccccc2)cc1Cl)c1c[nH]c2ncnc(N[C@@H]3CC[C@@H](CO)OC3)c12 [1 and 4],Form (competitive slurrying result),"Competitive slurrying; DIPE, 50° C.",Form 1
same,Form (competitive slurrying result),"Competitive slurrying; Ethanol, 50° C.",Form 1
same,Form (competitive slurrying result),"Competitive slurrying; Ethanol, Ambient",Form 1
O=C(c1ccc(Oc2ccccc2)cc1Cl)c1c[nH]c2ncnc(N[C@@H]3CC[C@@H](CO)OC3)c12 [1 and 8],Form (competitive slurrying result),"Competitive slurrying; DIPE, 50° C.",Form 1
same,Form (competitive slurrying result),"Competitive slurrying; Ethanol, 50° C.",Form 1
same,Form (competitive slurrying result),"Competitive slurrying; Ethanol, Ambient",Form 1
O=C(c1ccc(Oc2ccccc2)cc1Cl)c1c[nH]c2ncnc(N[C@@H]3CC[C@@H](CO)OC3)c12 [4 and 8],Form (competitive slurrying result),"Competitive slurrying; DIPE, 50° C.",Form 4
same,Form (competitive slurrying result),"Competitive slurrying; Ethanol, 50° C.",Form 1
same,Form (competitive slurrying result),"Competitive slurrying; Ethanol, Ambient",Form 1
O=C(c1ccc(Oc2ccccc2)cc1Cl)c1c[nH]c2ncnc(N[C@@H]3CC[C@@H](CO)OC3)c12.O=S(=O)(O)CCS(=O)(=O)O [Edisylate Pattern 1],pH - 2 Hours at 25° C.,[1]; Input Solvent Water,2.32
same,pH - 24 Hours at 25° C.,[1]; Input Solvent Water,2.18
same,pH - 48 Hours at 25° C.,[1]; Input Solvent Water,2.37
same,Solubility (mg/mL),"[1]; Input Solvent Water, 25° C.",<LOD
same,pH - 2 Hours at 25° C.,[1]; Input Solvent pH 1,0.17
same,pH - 24 Hours at 25° C.,[1]; Input Solvent pH 1,0.70
same,pH - 48 Hours at 25° C.,[1]; Input Solvent pH 1,1.11
same,Solubility,"[1]; Input Solvent pH 1, 25° C.",700 µg/mL
same,pH - 2 Hours at 25° C.,[1]; Input Solvent pH 4.5,4.40
same,pH - 24 Hours at 25° C.,[1]; Input Solvent pH 4.5,4.29
same,pH - 48 Hours at 25° C.,[1]; Input Solvent pH 4.5,4.22
same,Solubility (mg/mL),"[1]; Input Solvent pH 4.5, 25° C.",<LOD
same,pH - 2 Hours at 25° C.,[1]; Input Solvent pH 6.5,6.44
same,pH - 24 Hours at 25° C.,[1]; Input Solvent pH 6.5,6.03
same,pH - 48 Hours at 25° C.,[1]; Input Solvent pH 6.5,5.68
same,Solubility,"[1]; Input Solvent pH 6.5, 25° C.",<100 µg/mL
O=C(c1ccc(Oc2ccccc2)cc1Cl)c1c[nH]c2ncnc(N[C@@H]3CC[C@@H](CO)OC3)c12 [Form 1 and Form 4],form observed after competitive slurrying (XRPD),"Competitive slurrying; ambient and 50° C., acetone, ethanol, DIPE, acetonitrile",Form 1 was the dominant form
